The values below come from patent US10654835B2, “Compounds and methods for inhibiting JAK” (Dizal (Jiangsu) Pharmaceutical Co., Ltd., priority 2015, dated 2020).

Entries after “also recorded” stand apart in the source; their conditions may differ.

Series [1] has as its system LG1049 non-small cell lung cancer PDX tumor xenografts. The series is described as follows: LG1049 xenograft PDX model, antitumor activity (Example 72). Type of series: in vivo, mice. Particulars: for tumor regrowth when treatment was stopped after 28 days: osimertinib single agent or osimertinib + Example 32.
Procedure: Summary: LG1049 non-small cell lung cancer PDX tumor xenografts were grown subcutaneously in female NSG mice. […] Tumor volume was measured twice a week.
The nature of series [2]: LG1049 xenograft PDX model, body weight (Example 72). Type of series: in vivo, mice.
Source text: Materials and Methods: LG1049 tumor fragments were implanted subcutaneously in female NSG mice (JAX Stock No. 005557). Once tumor volumes reached ˜125-275 mm^3, mice were randomized into 5 groups (10 mice/group, average tumor volume 189 mm^3, range 138-253 mm^3).
The next series relates to pEGFR. Briefly: pEGFR knockdown in LG1049 tumors (Example 72). Type of series: in vivo, mice. The settings on record: osimertinib 25 mg/kg QD, 5 days of treatment, 4H after the final dose.
Series [3] has as its system NCI-H1975 tumor xenografts. Briefly: H1975 xenograft model, antitumor activity (Example 69). Type of series: in vivo, mice. As for the experimental part:
(§1) Tumor volume was measured twice a week.
Materials and Methods: NCI-H1975 cells (a human NSCLC cell line with L858R and T790M mutations in the EGFR gene) tumor cells were implanted subcutaneously in female NCr nude mice (Taconic Laboratories), 3×10^6 cells/mouse.

The test system of series [4] is pSTAT3 (Y705). The series is described as follows: pSTAT3 knockdown in NCI-H1975 tumors (Example 69). The settings on record: Example 32 12.5, 25, 50 mg/kg BID, after one day of treatment. Type of series: in vivo, mice. The protocol: as §1
(§2) Materials and Methods: NCI-H1975 cells (a human NSCLC cell line with L858R and T790M mutations in the EGFR gene) tumor cells were implanted subcutaneously in female NCr nude mice (Taconic Laboratories), 3×10^6 cells/mouse. […] Drug levels in plasma were measured by LC/MS, using a Linear Ion Trap Quadrupole LC/MS/MS Mass Spectrometer (QTRAP 5500 model 1024945-BB, AB Sciex Instruments), with separation on a Waters Xbridge C18 column.

The nature of series [5]: Drug levels in plasma, H1975 xenograft mice (Example 69). Type of series: in vivo. The settings on record: increasing dose of Example 32, one day of treatment. As for the experimental part: as §2
A further series has as its system PC-9 tumor xenografts. Briefly: PC-9 xenograft model, antitumor activity (Example 70). Type of series: in vivo, mice. The protocol:
as §1

For series [6], the system named is pSTAT3 (Y705). The series is described as follows: pSTAT3 knockdown in PC-9 tumors (Example 70). The class given is in vivo, mice. Particulars: gefitinib + Example 32 12.5 and 50 mg/kg BID; 2, 8 and 24 hours after the AM dose, last day. The protocol: as §1
In series [7] the test system is NCI-H1650 tumor xenografts. The series is described as follows: H1650 xenograft model, antitumor activity (Example 71). The class given is in vivo, mice. As for the experimental part: as §1
(§3) Twenty-three days after cell implantation, the mice were randomized into 6 groups (9 mice/group, average tumor volume 257 mm^3, range 205-303 mm^3). […] Drug levels in plasma were measured by LC/MS, using a Linear Ion Trap Quadrupole LC/MS/MS Mass Spectrometer (QTRAP 5500 model 1024945-BB, AB Sciex Instruments), with separation on a Waters Xbridge C18 column.

The subject of the next series is pSTAT3. Briefly: pSTAT3 knockdown in NCI-H1650 tumors (Example 71). Particulars: Example 32 as single agent and in combination with gefitinib, after one day of treatment. Type of series: in vivo, mice. The protocol:
as §1, §3

The test system of series [8] is pSTAT3 (Y705). The series is described as follows: pSTAT3 knockdown in LG1049 tumors (Example 72). The settings on record: Example 32 25 mg/kg BID, 5 days of treatment, 4H after the final dose. Type of series: in vivo, mice. The protocol:
as §1

For series [9], the system named is NCI-H1975 tumor xenografts. Briefly: H1975 xenograft model, intermittent Example 32 dosing schedules, antitumor activity (Example 73). The class given is in vivo, mice. The protocol: as §1
Materials and Methods: NCI-H1975 cells (a human NSCLC cell line with L858R and T790M mutations in the EGFR gene), were implanted subcutaneously in female NCr nude mice (Taconic Laboratories), 3×10^6 cells/mouse.

Take `C=CC(=O)Nc1cc(Nc2nccc(-c3cn(C)c4ccccc34)n2)c(OC)cc1N(C)CCN(C)C` [osimertinib, reference compound]: the “antitumor activity, single agent osimertinib” value in series [1] (osimertinib 25 mg/kg QD oral, 28 days) is recorded as “tumor regression”. Besides, the “tumor regrowth when treatment was stopped after 28 days” value in [1] is listed as “tumors rapidly regrew”. The “weight loss, single agent” value in series [2] (LG1049 tumor bearing NSG mice, weight loss ascribed to tumor growth) is listed as “lack of significant weight loss”. In addition, in the series with pEGFR, the “knockdown of pEGFR in tumors” value was “robust knockdown”.

In the case of `COc1nn(C)cc1Nc1nccc(-c2c[nH]c3c(NC(=O)[C@@H](C)N4CCN(C)CC4)cccc23)n1` [Example 32, (2R)-N-(3-{2-[(3-methoxy-1-methyl-1H-pyrazol-4-yl)amino]pyrimidin-4-yl}-1H-indol-7-yl)-2-(4-methylpiperazin-1-yl)propanamide], the “antitumor activity, single agent, relative to vehicle” value in series [3] (Example 32 12.5, 25 or 50 mg/kg BID oral, 18 days) is listed as “no significant antitumor activity; also recorded: only weak antitumor activity”; in series [9] (Example 32 50 mg/kg BID oral, 19 days), “no significant activity relative to vehicle control treatment”. For the same compound, the “dose dependence of the enhancement of antitumor activity” value in series [3] (osimertinib 2.5 mg/kg QD + Example 32 12.5 mg/kg up to 50 mg/kg) was “increased with increasing dose of Example 32”; in the series on PC-9 tumor xenografts (gefitinib + Example 32 from 12.5 mg/kg to 50 mg/kg), “increased with increasing dose of Example 32”; in series [7] (gefitinib + Example 32 from 25 mg/kg to 50 mg/kg) it was “increased with increasing dose of Example 32”; in series [9] (Example 32 50 mg/kg BID vs. 25 mg/kg BID with osimertinib), “greater at the higher dose of Example 32”. Also, the “antitumor activity of combination with osimertinib compared to osimertinib alone” value in series [3] (osimertinib 2.5 mg/kg QD + Example 32 12.5, 25 or 50 mg/kg BID oral, 18 days) is recorded as “enhanced the antitumor activity of osimertinib”; in [9] (osimertinib 2.5 mg/kg QD + Example 32, continuous and intermittent schedules), “enhanced the antitumor activity of osimertinib”. For the same compound, the “pSTAT3 knockdown in tumors” value with pSTAT3 (Y705) [4] is reported as “dose dependent increase in pSTAT3 knockdown”; with pSTAT3 (Y705) [6], “dose dependent increase in the duration of pSTAT3 knockdown”; in the series on pSTAT3 it was “Knockdown of pSTAT3 was observed”. Further, the “level of Example 32 in plasma” value in series [5] is listed as “increasing level of Example 32 in plasma”. Also, the “antitumor activity of combination with gefitinib compared to gefitinib” value with PC-9 tumor xenografts (gefitinib 6.25 mg/kg QD + Example 32, oral, 21 days) was “enhanced the antitumor activity of gefitinib”. Further, the “activity of combination compared to single agent gefitinib” value in the series with PC-9 tumor xenografts (gefitinib + 12.5 mg/kg Example 32 daily, and + 50 mg/kg Example 32 2 days on/5 days off) is on record as “greater activity than single agent gefitinib, but did not quite achieve statistical significance”. Moreover, the “antitumor activity, single agent” value in series [7] (Example 32 25 or 50 mg/kg BID oral, 21 days) is given as “only modest antitumor activity”. The “antitumor activity of combination with gefitinib compared to single agent gefitinib” value in series [7] (gefitinib 6.25 mg/kg QD + Example 32 25 or 50 mg/kg BID, 21 days) was “enhanced the antitumor activity of gefitinib”. Also, in series [1] (Example 32 25 mg/kg BID alone 3 days on/4 days off/wk after the combination), the “tumor regrowth when Example 32 treatment was continued after 28 days of combination” value is reported as “tumors also regrew, but more slowly”. The “antitumor activity, single agent Example 32, relative to vehicle” value in series [1] (Example 32 25 mg/kg BID oral, 18 days) was “no significant antitumor activity; also recorded: no significant activity relative to vehicle control treatment”. Besides, the “tumor regression, combination with osimertinib compared to osimertinib alone” value in [1] (osimertinib 25 mg/kg QD + Example 32 25 mg/kg BID (7 days, then 3 days on/4 days off/wk), 28 days) is “enhanced the tumor regression induced by osimertinib”. Further, the “tumor regrowth when treatment was stopped after 28 days” value in series [1] was “tumors rapidly regrew”. Also, in series [2] (mouse, in vivo), the “weight loss, single agent” value is “significant weight loss”. In the series on pSTAT3 (Y705) [8], the “knockdown of pSTAT3 in tumors” value was “robust knockdown”. Moreover, the “statistical significance of the difference, combination vs. osimertinib alone” value in series [9] (after 26 days of treatment) is “statistically significant after 26 days of treatment at all schedules of Example 32, with the exception of the groups in which Example 32 was dosed only for the first 7 days”. In addition, in series [9] (osimertinib 2.5 mg/kg QD + Example 32), the “enhancement of osimertinib activity by schedule intensity of Example 32 (rank order)” value is “daily>4 on/3 off>7 on/7 off>2 on/5 off>just first 7 days”.
